Patent US10717716B2, “1,3,4-oxadiazole derivative compounds as histone deacetylase 6 inhibitor, and the pharmaceutical composition comprising the same” (Chong Kun Dang Pharmaceutical Corp., priority 2015, dated 2020)
pIC50: −log10 of the molar value.

Target: T1, human recombinant HDAC6 (Homo sapiens, UniProt Q9UBN7)
T1 construct: purchased Calbiochem 382180
T1 sequence (Q9UBN7 1-1215): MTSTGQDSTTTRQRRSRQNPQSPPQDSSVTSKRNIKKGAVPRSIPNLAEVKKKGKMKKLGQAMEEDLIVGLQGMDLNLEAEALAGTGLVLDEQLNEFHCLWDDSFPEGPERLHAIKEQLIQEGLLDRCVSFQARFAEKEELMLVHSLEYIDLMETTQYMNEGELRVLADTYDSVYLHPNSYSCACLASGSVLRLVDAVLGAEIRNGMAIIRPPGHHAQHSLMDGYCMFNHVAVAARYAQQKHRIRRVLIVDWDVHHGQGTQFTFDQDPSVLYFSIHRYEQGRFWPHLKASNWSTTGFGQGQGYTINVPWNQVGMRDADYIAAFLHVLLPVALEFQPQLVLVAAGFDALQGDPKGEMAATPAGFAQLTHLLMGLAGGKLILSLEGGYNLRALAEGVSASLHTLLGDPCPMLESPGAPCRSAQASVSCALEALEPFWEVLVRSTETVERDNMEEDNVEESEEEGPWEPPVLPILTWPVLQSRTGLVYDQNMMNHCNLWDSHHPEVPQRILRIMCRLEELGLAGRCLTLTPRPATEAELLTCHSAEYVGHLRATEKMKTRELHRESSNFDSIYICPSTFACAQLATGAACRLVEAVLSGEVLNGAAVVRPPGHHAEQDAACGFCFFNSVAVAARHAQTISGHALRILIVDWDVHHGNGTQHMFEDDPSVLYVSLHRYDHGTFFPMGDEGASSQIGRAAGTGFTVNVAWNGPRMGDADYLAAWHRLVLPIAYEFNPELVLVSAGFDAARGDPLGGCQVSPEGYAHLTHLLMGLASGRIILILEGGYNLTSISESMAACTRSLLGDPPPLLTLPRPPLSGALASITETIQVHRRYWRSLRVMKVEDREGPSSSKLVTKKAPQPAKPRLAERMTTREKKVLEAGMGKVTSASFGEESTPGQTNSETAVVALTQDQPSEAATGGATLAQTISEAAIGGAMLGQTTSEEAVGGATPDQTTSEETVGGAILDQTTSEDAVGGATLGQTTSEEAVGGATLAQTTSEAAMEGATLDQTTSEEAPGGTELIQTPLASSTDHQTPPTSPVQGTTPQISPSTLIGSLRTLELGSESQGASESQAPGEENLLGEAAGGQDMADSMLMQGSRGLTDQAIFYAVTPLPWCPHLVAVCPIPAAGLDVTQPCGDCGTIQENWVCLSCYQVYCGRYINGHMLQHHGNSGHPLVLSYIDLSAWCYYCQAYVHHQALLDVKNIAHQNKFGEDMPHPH
Test: HDAC6 enzyme activity inhibition assay (HDAC Fluorimetric Drug Discovery Kit)
Type: biochemical
Settings: for HDAC6 selectivity (fold): HDAC6 over HDAC1; for pIC50: human recombinant HDAC6, same protocol as HDAC1, read-out: HDAC6
Description: In order to examine the HDAC6 selectivity of the compounds of formula I of the present invention by HDAC1 and HDAC6 enzymatic activity inhibition assays, an experiment was performed using a conventional substance as a control.
HDAC enzyme activity was measured using a HDAC Fluorimetric Drug Discovery Kit (BML-AK511, 516, Enzo Life Science). For the HDAC1 enzyme activity test, human recombinant HDAC1 (BML-SE456) was used as an enzyme source, and Fluor de Lys®-“SIRT1 (BNL-KI177) was used as a substrate. A 5-fold dilution of the compound was seeded into a 96-well plate, and then 0.3 μg of the enzyme and 10 μM of the substrate were added to each well of the plate and allowed to react at 30° C. for 60 minutes. Then, Fluor de Lys®-Developer II (BML-KI176) was added thereto and allowed to react for 30 minutes, after which the fluorescence value (Ex 360, Em 460) was measured using a multi-plate reader (Flexstation 3, Molecular Device). The HDAC6 enzyme was tested using human recombinant HDAC6 (382180) (Calbiochem) according to the same protocol as the HDAC1 enzyme activity test method. Based on the resulting values, each IC5, value was calculated using GraphPad Prism4.0 program.

SMILES	HDAC6 selectivity (fold)	pIC50
O=C(N1CCOCC1)N(Cc1ccc(Cc2nnc(C(F)(F)F)o2)cc1)c1ccccc1 [Compound 21355, N-phenyl-N-(4-((5-(trifluoromethyl)-1,3,4-oxadiazol-2-yl)methyl)benzyl)morpholine-4-carboxamide]	1 fold	5.16
O=C(NCC1CCOCC1)N(Cc1ccc(-c2nnc(C(F)(F)F)o2)cc1)c1ccccc1 [Compound 21357, 1-Phenyl-3-((tetrahydro-2H-pyran-4-yl)methyl)-1-(4-(5-(trifluoromethyl)-1,3,4-oxadiazol-2-yl)benzyl)urea]	21 fold	6.33
O=C(N1CCN(c2ccccc2)CC1)N(Cc1ccc(-c2nnc(C(F)(F)F)o2)cc1)c1ccccc1 [Compound 21358, N,4-diphenyl-N-(4-(5-(trifluoromethyl)-1,3,4-oxadiazol-2-yl)benzyl)piperazine-1-carboxamide]	10 fold	5.98
O=C(N1CC=C(c2ccccc2)CC1)N(Cc1ccc(-c2nnc(C(F)(F)F)o2)cc1)c1ccccc1 [Compound 21359, N,4-diphenyl-N-(4-(5-(trifluoromethyl)-1,3,4-oxadiazol-2-yl)benzyl)-3,6-dihydropyridine-1(2H)-carboxamide]	4 fold	5.64
O=C(N1CCS(=O)(=O)CC1)N(Cc1ccc(-c2nnc(C(F)F)o2)cc1)c1ccccc1 [Compound 21360, N-(4-(5-(difluoromethyl)-1,3,4-oxadiazol-2-yl)benzyl)-N-phenylthiomorpholine-4-carboxamide 1,1-dioxide]	282 fold	7.45
O=C(N1CCS(=O)(=O)CC1)N(Cc1ccc(-c2nnc(C(F)(F)F)o2)cc1)c1ccccc1 [Compound 21361, N-phenyl-N-(4-(5-(trifluoromethyl)-1,3,4-oxadiazol-2-yl)benzyl)thiomorpholine-4-carboxamide 1,1-dioxide]	147 fold	7.17
O=C(N1CCNCC1)N(Cc1ccc(-c2nnc(C(F)(F)F)o2)cc1)c1ccccc1 [Compound 21362, N-phenyl-N-(4-(5-(trifluoromethyl)-1,3,4-oxadiazol-2-yl)benzyl)piperazine-1-carboxamide]	180 fold	7.25
CS(=O)(=O)N1CCN(C(=O)N(Cc2ccc(-c3nnc(C(F)(F)F)o3)cc2)c2ccccc2)CC1 [Compound 21363, 4-(Methylsulfonyl)-N-phenyl-N-(4-(5-(trifluoromethyl)-1,3,4-oxadiazol-2-yl)benzyl)piperazine-1-carboxamide]	118 fold	7.07
CC(=O)N1CCN(C(=O)N(Cc2ccc(-c3nnc(C(F)(F)F)o3)cc2)c2ccccc2)CC1 [Compound 21364, 4-Acetyl-N-phenyl-N-(4-(5-(trifluoromethyl)-1,3,4-oxadiazol-2-yl)benzyl)piperazine-1-carboxamide]	108 fold	7.03
CC(C)C(=O)N1CCN(C(=O)N(Cc2ccc(-c3nnc(C(F)(F)F)o3)cc2)c2ccccc2)CC1 [Compound 21365, 4-Isobutyryl-N-phenyl-N-(4-(5-(trifluoromethyl)-1,3,4-oxadiazol-2-yl)benzyl)piperazine-1-carboxamide]	69 fold	6.84
CCC(=O)N1CCN(C(=O)N(Cc2ccc(-c3nnc(C(F)(F)F)o3)cc2)c2ccccc2)CC1 [Compound 21366, N-phenyl-4-propionyl-N-(4-(5-(trifluoromethyl)-1,3,4-oxadiazol-2-yl)benzyl)piperazine-1-carboxamide]	79 fold	6.90
O=C(N1CCN(C(=O)C(F)(F)F)CC1)N(Cc1ccc(-c2nnc(C(F)(F)F)o2)cc1)c1ccccc1 [Compound 21367, N-phenyl-4-(2,2,2-trifluoroacetyl)-N-(4-(5-(trifluoromethyl)-1,3,4-oxadiazol-2-yl)benzyl)piperazine-1-carboxamide]	43 fold	6.63
O=C(NCc1ccccc1)N(Cc1ccc(-c2nnc(C(F)(F)F)o2)cc1)c1ccccc1 [Compound 21368, 3-Benzyl-1-phenyl-1-(4-(5-(trifluoromethyl)-1,3,4-oxadiazol-2-yl)benzyl)urea]	24 fold	6.38
O=C(N1CCS(=O)(=O)CC1)N(Cc1ccc(-c2nnc(C(F)(F)F)o2)cc1F)c1ccccc1 [Compound 21369, N-(2-fluoro-4-(5-(trifluoromethyl)-1,3,4-oxadiazol-2-yl)benzyl)-N-phenylthiomorpholine-4-carboxamide 1,1-dioxide]	179 fold	7.25
O=C(N1CCS(=O)(=O)CC1)N(Cc1ccc(-c2nnc(C(F)F)o2)cc1F)c1ccccc1 [Compound 21370, N-(4-(5-(difluoromethyl)-1,3,4-oxadiazol-2-yl)-2-fluorobenzyl)-N-phenylthiomorpholine-4-carboxamide 1,1-dioxide]	400 fold	7.60
O=C(N1CCS(=O)(=O)CC1)N(Cc1ccc(-c2nnc(C(F)(F)F)o2)cc1)C1CCCC1 [Compound 21371, N-cyclopentyl-N-(4-(5-(trifluoromethyl)-1,3,4-oxadiazol-2-yl)benzyl)thiomorpholine-4-carboxamide 1,1-dioxide]	9 fold	5.96
O=C(N1CCS(=O)(=O)CC1)N(Cc1ccc(-c2nnc(C(F)(F)F)o2)cn1)c1ccccc1 [Compound 21372, N-phenyl-N-((5-(5-(trifluoromethyl)-1,3,4-oxadiazol-2-yl)pyridin-2-yl)methyl)thiomorpholine-4-carboxamide 1,1-dioxide]	132 fold	7.12
O=C(N1CCS(=O)(=O)CC1)N(Cc1ccc(-c2nnc(C(F)F)o2)cn1)c1ccccc1 [Compound 21373, N-((5-(5-(difluoromethyl)-1,3,4-oxadiazol-2-yl)pyridin-2-yl)methyl)-N-phenylthiomorpholine-4-carboxamide 1,1-dioxide]	500 fold	7.70
O=C(N1CCS(=O)(=O)CC1)N(Cc1ccccc1)Cc1ccc(-c2nnc(C(F)(F)F)o2)cc1 [Compound 21374, N-benzyl-N-(4-(5-(trifluoromethyl)-1,3,4-oxadiazol-2-yl)benzyl)thiomorpholine-4-carboxamide 1,1-dioxide]	10 fold	6.00
CCN(Cc1ccc(-c2nnc(C(F)(F)F)o2)cc1)C(=O)N1CCS(=O)(=O)CC1 [Compound 21375, N-ethyl-N-(4-(5-(trifluoromethyl)-1,3,4-oxadiazol-2-yl)benzyl)thiomorpholine-4-carboxamide 1,1-dioxide]	6 fold	5.76
C[C@@H]1CN(C(=O)N(Cc2ccc(-c3nnc(C(F)(F)F)o3)cc2)c2ccccc2)C[C@H](C)N1Cc1ccccc1 [Compound 21376, (3S,5R)-4-Benzyl-3,5-dimethyl-N-phenyl-N-(4-(5-(trifluoromethyl)-1,3,4-oxadiazol-2-yl)benzyl)piperazine-1-carboxamide]	22 fold	6.35
O=C(N1CCC(F)(F)CC1)N(Cc1ccc(-c2nnc(C(F)(F)F)o2)cc1)c1ccccc1 [Compound 21377, 4,4-Difluoro-N-phenyl-N-(4-(5-(trifluoromethyl)-1,3,4-oxadiazol-2-yl)benzyl)piperidine-1-carboxamide]	30 fold	6.48
